Laboratory results reported in patent US8293465B2, “Method for the detection of human immunodeficiency virus envelope (HIV) glycoprotein utilizing carbohydrate binding module (CBM) 20 or 21” (priority 2009, dated 2012).

B1: RoSBD: starch binding domain, CBM family 21, derived from Rhizopus oryzae glucoamylase, produced in E. coli (protein)
chain: ASIPSSASVQLDSYNYDGSTFSGKIYVKNIAYSKKVTVIYADGSDNWNNNGNTIAASYSAPISGSNYEYWTFSASINGIKEFYIKYEVSGKTYYDNNNSANYQVST

Legend:
[1] = biological target: T1, AnSBD binding to HIV Ag & Ab positive panel (Aspergillus niger, UniProt P69328); settings: 10 mM competitor; AnSBD coated plate; FIG. 6B
T1 construct: made in house; host or cells: E. coli (pET15b, printed 'pET15Bb')
Description: (§1) Ten millimolar maltoheptaose (G7 glycan) and β-cyclodextrin (βCD) (Sigma-Aldrich, St. Louis, Mo.) were dissolved in PBS plus 5% BSA and mixed with the same volume of HIV Ag & Ab positive panel at 37° C. for 1 hr. After adding the mixture to RoSBD coated plate (100 nM in 0.05 M Tris-Hcl, pH 8) or AnSBD coated plate (100 nM in 0.05 M sodium bicarbonate buffer, pH 9.5) at 37° C. for 1 hr, 100 μL HRP coupled HIV1 recombinant gp120 antigen conjugate (0.05 μg/mL) was used for detection.
(§2) HIV Ag & Ab positive panel was separately mixed with the same volume of 500 nM human IgG1 secondary antibody, 2G12 monoclonal antibody, and 250 nM HIV1 gp140 antigen at 37° C. for 1 hr. After adding the mixture to (a) RoSBD coated (100 nM in 0.05 M Tris-Hcl, pH 8) and (b) AnSBD coated plate (100 nM in 0.05 M sodium bicarbonate buffer, pH 9.5) individually at 37° C. for 1 hr, 100 μL HRP coupled HIV1 recombinant gp120 antigen conjugate (0.05 μg/mL) was used for detection.

[2] = biological target: T2, RoSBD binding to HIV Ag & Ab positive panel (Rhizopus oryzae, UniProt P07683); assay: Competition of HIV-RoSBD binding, ELISA on RoSBD coated plate; settings: 10 mM competitor, FIG. 6A
T2 construct: made in house; host or cells: E. coli (pET23a)
Description: as §1, §2

[3] = Glycan array screening of RoSBD (CFG Core H, version 3.1); format: binding; settings: among 377 glycans; FIG. 1A
Description: RoSBD was produced in E. coli system using pET23a expression vector and purified using amylose resin as previously described. Glycan microarray analyses were conducted by the Consortium for Functional Glycomics, Core H facility. The array contained a total of 377 different natural and synthetic glycans and version 3.1 was used for the analyses reported here. Briefly, RoSBD was diluted to […] in sodium acetate binding buffer (50 mM sodium acetate pH 5.5, 1% BSA and 0.05% Tween-20). Seventy microliters was applied to the printed surface of the array, coverslipped, and incubated at room temperature in a humidified chamber away from light for 1 hr. After the incubation, the coverslip was removed and rinsed four times in TSM buffer [50 mM Tris-HCI (pH 7.5), 10 mM MgCl2, and 0.5 M sucrose] and four times in TSM buffer. Seventy microliters of Anti-RoSBD monoclonal antibody, diluted to 1:200 in PBS binding buffer, was applied to the printed surface of the microarray and incubated in a humidified chamber for 1 hr. Washes were performed as above. To detect binding, the secondary antibody incubation was performed with Alexa488-labeled goat anti-mouse IgG at […] in PBS buffer for one hour in a humidified chamber, followed by wash steps. The binding image was read in a Perkin-Elmer Microarray XL4000 scanner and analyzed using Imagene (V.6) image analysis software. […]

[4] = system: HIV Ag & Ab positive panel (possibly native HIV gp120 antigen glycoprotein); assay: HIV-RoSBD binding analysis, sandwich ELISA on SBD coated plates
Description: At first 100 μL of 100 nM AnSBD/RoSBD were coated on individual well of a 96-well plate (Greiner-Bio One GmbH, Frickenhausen, Germany) in sodium bicarbonate buffer (pH 9.5)/Tris-HCl buffer (pH 8) via 16-hr incubation at 4° C. The plate was washed with PBST [10 mM Phosphate Buffered Saline (pH 7.0) plus 0.05% Tween-20], then 200 μL blocking buffer [0.01 M Phosphate Buffered Saline (pH 7.0) plus 5% BSA] was added to each well and incubated at 37° C. for 2 hr. The blocking buffer was removed and the plate was dried at 25° C. for 1 hr. […] To test the specificity of the SBD binding to HIV, HCV test sample and HCV recombinant antigen (Core+NS3+NS5)-HRP conjugate (0.33 μg/mL) were analyzed following the same protocol in parallel. Finally, the plates were developed by adding 100 μL 3,3′,5,5′-tetramethylbenzidibe (TMB) at 37° C. for […] The absorbance was measured at 450 nm in ELISA reader after the reaction was stopped by addition of 100 μL 2 N H2SO4 in each well. These absorbance values were compiled as a statistical value (Cut off value; COV) and described in terms of cut off index (COI) value. The COV was calculated as the OD value of negative control (Normal Human Serum) plus 0.1 (COV=NC+0.1). The COI value was calculated as the OD value of test sample divided by COV. […]

Molecule	competitive inhibition rate [1] [%]	competitive inhibition rate [2] [%]	glycan recognition (interaction signal on glycan array) [3]	specificity of binding, HIV panel versus Anti-HCV mixed titer performance panel ([4]; Anti-HCV panel PHV205-24 in parallel, P<0.0001, FIG. 4B)	maximal COI value of binding ([4]; HIV Ag & Ab positive panel #9144532, COI > 1 is positive, FIG. 4A)
OC[C@H]1O[C@@H]2O[C@H]3[C@H](O)[C@@H](O)[C@@H](O[C@H]4[C@H](O)[C@@H](O)[C@@H](O[C@H]5[C@H](O)[C@@H](O)[C@@H](O[C@H]6[C@H](O)[C@@H](O)[C@@H](O[C@H]7[C@H](O)[C@@H](O)[C@@H](O[C@H]8[C@H](O)[C@@H](O)[C@@H](O[C@H]1[C@H](O)[C@H]2O)O[C@@H]8CO)O[C@@H]7CO)O[C@@H]6CO)O[C@@H]5CO)O[C@@H]4CO)O[C@@H]3CO [β-cyclodextrin]	14.3	23.1			
maltoheptaose	45.9	24.4			
B1			only Manα(1,2)Manα(1,2)Manα(1,2)Manα(1,3) (No. 187) showed evident interaction signal	specific	2.298
